In patent US7179825B2, “Retinoic acid mimetic anilides” (Janssen Pharmaceutica N.V., priority 1997, dated 2007):

Assays:
[1] = system: metabolism of retinoic acid in human breast cancer cells; assay: Inhibition of retinoic acid (RA) metabolism (Example C.1); type: cell-based; conditions: MCF-7 human breast cancer cells, 3H-RA as substrate, concentration needed to reduce the amount of metabolites to 50% of the control
Outline: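 Test compound (in 1% DMSO) added at several concentrations to MCF-7 cell suspensions fed ³H-RA, after RA induction of metabolism one day earlier. Scintillation counting of the separated polar metabolite fraction; IC50 = concentration giving 50% of control metabolite level.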

Ovariectomized rats = assay: Vaginal keratinization test on ovariectomized rats (Example C.2); type: in vivo; conditions: estradiol undecylate induced keratinization, per os once daily on days 1-3, active dose = 50% of rats show complete suppression
Outline: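 Value is the lowest oral dose (mg/kg) at which half of tested rats show complete suppression of estradiol undecylate-induced vaginal keratinization by histology. Ovariectomized rats received 100 μg/100 g estradiol undecylate s.c., then compound or PEG 200 vehicle p.o. daily for three days; sacrifice one day later.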

Row | Structure (SMILES) | IC50 [1] | IC50 ([1]; MCF7) | LAD (lowest active dose) (Ovariectomized rats) | minimal effective dose (Ovariectomized rats; Rattus norvegicus, po, read-out: LAD (lowest active dose))
1 | C/C(=C\c1ccsc1)C(=O)Nc1ccc(C(C(C)C)n2ccnc2)cc1 (racemic) [Compound 596] | 7.92 nM | – | 10.00 mg/kg | –
2 | CC(C)Oc1ccc(CC(=O)Nc2ccc(C(C(C)N(C)C)n3ccnc3)cc2)cc1 (single isomer, unassigned) [Compound 316] | 4.06 nM | – | 5.00 mg/kg | –
3 | CCC(CC)C(c1ccc(N(C)C(=O)Cc2ccc(OC)c(OC)c2)cc1)n1ccnc1 (racemic) [Compound 427] | 8.34 nM | – | 2.50 mg/kg | –
4 | CC(C)C(c1ccc(NC(=O)c2ccsc2)cc1)n1ccnc1 (racemic) [Compound 173] | 5.17 nM | – | 10.00 mg/kg | –
5 | CC(C)C(c1ccncc1)c1ccc(NC(=O)Nc2cccc(F)c2)cc1 (racemic) [Compound 692] | 38 nM | – | >10.00 mg/kg | –
6 | C/C(=C\c1ccccc1)C(=O)Nc1ccc(C(CCC(C)C)n2ccnc2)cc1 (stereo not shown) [Compound 475] | > 100 nM | – | >10.00 mg/kg | –
7 | CC(C)C(c1ccc(NC(=O)Cc2ccc(Cl)cc2)cc1)(C(C)C)n1ccnc1 [Compound 763] | 5.62 nM | – | >5.00 mg/kg | –
8 | CC(C)C(c1ccc(NC(=O)Nc2cccnc2)cc1)n1ccnc1 (racemic) [Compound 270] | 5.61 nM | – | >10.00 mg/kg | –
9 | CC(=Cc1cccc(C(F)(F)F)c1)C(=O)Nc1ccc(C(C(C)C)n2ccnc2)cc1 (racemic) [Compound 578] | 7.67 nM | – | >10.00 mg/kg | –
10 | CC(=Cc1ccccc1)C(=O)Nc1ccc(C(C(C)c2ccccc2)n2ccnc2)cc1 (single isomer, unassigned) [Compound 489] | > 100 nM | – | 2.50 mg/kg | –
11 | C/C(=C\c1ccccc1)C(=O)Nc1ccc(C(C(C)c2ccccc2)n2ccnc2)cc1 (single isomer, unassigned) [Compound 490] | > 100 nM | – | 2.50 mg/kg | –
12 | CC(=Cc1ccccc1)C(=O)Nc1ccc(C(c2ccccc2)n2ccnc2)cc1 (racemic) [Compound 445] | 192 nM | – | >20.00 mg/kg | –
13 | C/C(=C\c1ccc(C(F)(F)F)cc1F)C(=O)Nc1ccc(C(C(C)C)n2ccnc2)cc1 (racemic) [Compound 609] | 10.9 nM | – | 10.00 mg/kg | –
14 | CC(C)C(c1ccc(NC(=O)Nc2cccc(C(F)(F)F)c2)cc1)n1ccnc1 (racemic) [Compound 730] | 15.9 nM | – | >10.00 mg/kg | –
15 | O=C(Cc1ccc(Cl)cc1)Nc1ccc(C(c2ccccc2)n2ccnc2)cc1 (stereo not shown) [Compound 357] | > 100 nM | – | >10.00 mg/kg | –
16 | CC(C)C(c1ccc(NC(=O)Nc2ccc3c(c2)OCCO3)cc1)n1ccnc1 (racemic) [Compound 276] | 16 nM | – | >10.00 mg/kg | –
17 | O=C(/C=C/c1ccccc1)Nc1ccc(C(c2cccc(F)c2)n2cncn2)cc1 (racemic) [Compound 618] | 15.7 nM | – | >20.00 mg/kg | –

Row | Structure (SMILES) | IC50 [1] | IC50 ([1]; MCF7) | LAD (lowest active dose) (Ovariectomized rats) | minimal effective dose (Ovariectomized rats; Rattus norvegicus, po, read-out: LAD (lowest active dose))
18 | CC(=Cc1cccn1C)C(=O)Nc1ccc(C(C(C)C)n2ccnc2)cc1 (racemic) [Compound 605] | 14 nM | – | >10.00 mg/kg | –
19 | CC(Oc1ccccc1)C(c1ccc(NC(=O)Cc2ccc(Cl)cc2)cc1)n1ccnc1 (single isomer, unassigned) [Compound 370] | 83.4 nM | – | >10.00 mg/kg | –
20 | COc1ccc(NC(=O)Nc2ccc(C(C(C)C)n3ccnc3)cc2)cc1 (racemic) [Compound 722] | 4.14 nM | – | 5.00 mg/kg | –
21 | CC(c1ccc(NC(=O)Cc2ccc(Cl)cc2)cc1)n1ccnc1 (racemic) [Compound 358] | > 100 nM | – | >10.00 mg/kg | –
22 | CC(C)C(c1ccc(NC(=O)Cc2cccnc2)cc1)n1ccnc1 (stereo not shown) [Compound 251] | 3.93 nM | – | 10.00 mg/kg | –
23 | COc1cc(CC(=O)Nc2ccc(C(C(C)C)n3ccnc3)cc2)ccc1O (stereo not shown) [Compound 142] | 31.1 nM | – | 5.00 mg/kg | –
24 | CC(C)C(c1ccc(NC(=O)CC2COc3ccccc3O2)cc1)n1ccnc1 (racemic) [Compound 237] | 18.2 nM | – | 5.00 mg/kg | –
25 | O=C(Nc1ccc(C(c2ccccc2)n2ccnc2)cc1)C1COc2ccccc2O1 (stereo not shown) [Compound 425] | 38.1 nM | – | >10.00 mg/kg | –
26 | CCC(CC)C(c1ccc(NC(=O)C(SC)c2ccccc2)cc1)n1ccnc1 (stereo not shown) [Compound 50] | 7.44 nM | – | 2.50 mg/kg | –
27 | CC(C)C(c1ccc(NC(=O)Cc2ccccc2)cc1)n1ccnc1 (stereo not shown) [Compound 650] | 4.86 nM | – | 10.00 mg/kg | –
28 | CCC(CC)C(c1ccc(NC(=O)Nc2nc3ccccc3s2)cc1)n1ccnc1 (racemic) [Compound 64] | 6.6 nM | – | >5.00 mg/kg | –
29 | CC(C)C(c1ccc(NC(=O)N(C)Cc2ccccc2)cc1)n1ccnc1 (racemic) [Compound 263] | 4.66 nM | – | >10.00 mg/kg | –
30 | CNC(=S)Nc1ccc(C(C(C)C)n2ccnc2)cc1 (racemic) [Compound 696] | 8.07 nM | – | >10.00 mg/kg | –
31 | CC(C)C(c1ccc(NC(=O)C2CCOC2)cc1)n1ccnc1 (racemic) [Compound 185] | 39.7 nM | – | 10.00 mg/kg | –
32 | C/C(=C\c1ccc(N)cc1)C(=O)Nc1ccc(C(C(C)C)n2ccnc2)cc1 (racemic) [Compound 611, (±)-(E)-2-[(4-aminophenyl)methylene]-N-[4-[1-(1H-imidazol-1-yl)-2-methylpropyl]phenyl]propanamide] | – | 3.42 nM | – | 10 mg/kg
33 | C/C(=C\c1ccccc1)C(=O)Nc1ccc(C(c2cccnc2)C(C)C)cc1 (racemic) [Compound 679] | > 1000 nM | – | >20.00 mg/kg | –

More lines, main results first:

Row | IC50 [1] | IC50 ([1]; MCF7) | Structure (SMILES) | LAD (lowest active dose) (Ovariectomized rats) | minimal effective dose (Ovariectomized rats; Rattus norvegicus, po, read-out: LAD (lowest active dose))
34 | 0.0357 nM | – | CCC(CC)C(c1ccc(NC(=O)Cc2ccc3nc(N)sc3c2)cc1)n1cncn1 (stereo not shown) [Compound 13] | >2.50 mg/kg | –
35 | 2.71 nM | – | CC(C)C(c1ccc(NC(=O)CC2(CC(=O)O)CCCC2)cc1)n1ccnc1 (racemic) [Compound 264] | >10.00 mg/kg | –
36 | 3.41 nM | – | CC(C)C(c1ccc(NC(=O)c2ccoc2)cc1)n1ccnc1 (racemic) [Compound 172] | 10.00 mg/kg | –
37 | 2.63 nM | – | CCC(CC)C(c1ccc(NC(=O)C(O)c2ccc(C)c(C)c2)cc1)n1cncn1 (mixture of isomers) [Compound 11] | >2.50 mg/kg | –
38 | 2.83 nM | – | C/C(=C\c1ccccc1)C(=O)Nc1ccc(C(n2ccnc2)C(C)(C)C)cc1 (racemic) [Compound 481] | 10.00 mg/kg | –
39 | 0.332 nM | – | CCC(CC)C(c1ccc(NC(=O)Cc2ccc(C)c(C)c2)cc1)n1cncn1 (racemic) [Compound 77] | 2.50 mg/kg | –
40 | 0.262 nM | – | CCOc1ccc(CC(=O)Nc2ccc(C(C(CC)CC)n3cncn3)cc2)cc1 (racemic) [Compound 71] | >5.00 mg/kg | –
41 | 0.28 nM | – | CCC(CC)C(c1ccc(NC(=O)Cc2ccc(Cl)cc2)cc1)n1ccnc1 (racemic) [Compound 87] | 1.25 mg/kg | –
42 | 1.43 nM | – | CCOc1ccc(CC(=O)Nc2ccc(C(C(C)C)n3cncn3)cc2)cc1 (stereo not shown) [Compound 135] | 2.50 mg/kg | –
43 | 0.201 nM | – | CCC(CC)C(c1ccc(NC(=O)CC2COc3ccccc3O2)cc1)n1ccnc1 (mixture of isomers) [Compound 26] | 5.00 mg/kg | –
44 | 1.16 nM | – | COc1ccc(CC(=O)Nc2ccc(C(n3cncn3)C(C)(C)C)cc2)cc1OC.O (stereo not shown) [Compound 642] | 2.50 mg/kg | –
45 | 0.162 nM | – | CCC(CC)C(c1ccc(NC(=O)Cc2ccc(Cl)c(OC)c2)cc1)n1cncn1 (racemic) [Compound 83] | >2.50 mg/kg | –
46 | 1.42 nM | – | CCCC(c1ccc(NC(=O)Cc2ccc(Cl)cc2)cc1)n1ccnc1 (stereo not shown) [Compound 363] | >10.00 mg/kg | –
47 | 2.89 nM | – | C/C(=C\c1ccccn1)C(=O)Nc1ccc(C(C(C)C)n2ccnc2)cc1 (racemic) [Compound 604] | >10.00 mg/kg | –
48 | < 0.01 nM | – | CCC(CC)C(c1ccc(NC(=O)Cc2ccc(OC)cc2OC)cc1)n1ccnc1 (racemic) [Compound 126] | 2.50 mg/kg | –
49 | 2.78 nM | – | C/C(=C\c1ccc(F)cc1)C(=O)Nc1ccc(C(C(C)C)n2ccnc2)cc1 (racemic) [Compound 583] | 10.00 mg/kg | –
50 | 3.34 nM | – | CC(C)C(c1ccc(NC(=O)C2CCCC2)cc1)n1ccnc1 (racemic) [Compound 192] | >10.00 mg/kg | –
51 | 0.0109 nM | – | CCC(CC)C(c1ccc(NC(=O)Cc2ccc(OCc3cccnc3)cc2)cc1)n1ccnc1 (stereo not shown) [Compound 130] | 5.00 mg/kg | –
52 | 0.697 nM | – | CCC(CC)C(c1ccc(NC(=O)CCc2ccc(OC)c(OC)c2)cc1)n1ccnc1 (racemic) [Compound 32] | 5.00 mg/kg | –
53 | 0.334 nM | – | CCC(CC)C(c1ccc(NC(=O)Cc2cccc(O)c2)cc1)n1cncn1 (racemic) [Compound 67] | 2.50 mg/kg | –
